What was measured:
[1] = AUC (0 to infinity) in Sprague-Dawley rat at 2 mg/kg, iv; assay type: ADME, organism-based; design: dose 2 mg/kg, route iv; details: in vivo
Cytochrome P450 2D6 = Cytochrome P450 2D6 (Homo sapiens, UniProt P10635); assay: Inhibition of CYP2D6 (unknown origin); assay type: ADME
[2] = Oral bioavailability in Sprague-Dawley rat at 10 mg/kg; assay type: ADME, organism-based; details: in vivo
Cytochrome P450 2C9 = Cytochrome P450 2C9 (Homo sapiens, UniProt P11712); assay: Inhibition of CYP2C9 (unknown origin); assay type: ADME
[3] = Tmax in Sprague-Dawley rat at 2 mg/kg, iv; assay type: ADME, organism-based; details: in vivo
[4] = Cmax in Sprague-Dawley rat at 10 mg/kg, po; assay type: ADME, organism-based; design: dose 10 mg/kg, route po; details: in vivo
Cytochrome P450 3A4 = Cytochrome P450 3A4 (Homo sapiens, UniProt P08684); assay: Inhibition of CYP3A4 (unknown origin) using midazolam as substrate; assay type: ADME
Cytochrome P450 2C19 = Cytochrome P450 2C19 (Homo sapiens, UniProt P33261); assay: Inhibition of CYP2C19 (unknown origin); assay type: ADME
Cytochrome P450 1A2 = biological target: T1, Cytochrome P450 1A2 (Homo sapiens, UniProt P05177); assay: Inhibition of CYP1A2 (unknown origin); assay type: ADME
T1 sequence (P05177 whole entry): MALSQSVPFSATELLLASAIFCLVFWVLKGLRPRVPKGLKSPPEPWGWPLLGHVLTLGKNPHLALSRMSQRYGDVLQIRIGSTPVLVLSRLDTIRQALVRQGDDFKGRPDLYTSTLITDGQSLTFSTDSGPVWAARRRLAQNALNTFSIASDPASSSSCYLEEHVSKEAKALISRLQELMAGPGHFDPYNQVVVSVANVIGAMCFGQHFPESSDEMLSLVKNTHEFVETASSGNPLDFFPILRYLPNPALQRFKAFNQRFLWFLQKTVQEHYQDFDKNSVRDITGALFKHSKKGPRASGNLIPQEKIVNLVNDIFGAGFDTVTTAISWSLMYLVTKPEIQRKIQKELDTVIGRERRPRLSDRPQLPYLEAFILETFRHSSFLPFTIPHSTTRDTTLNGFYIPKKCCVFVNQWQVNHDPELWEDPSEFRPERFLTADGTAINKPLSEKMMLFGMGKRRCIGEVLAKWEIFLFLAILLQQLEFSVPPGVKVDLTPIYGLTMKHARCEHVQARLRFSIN

[5] = AUC (0 to infinity) in Sprague-Dawley rat at 10 mg/kg, po; assay type: ADME, organism-based; design: dose 10 mg/kg, route po; details: in vivo
[6] = Selectivity index, ratio of CC50 for human MT4 cells to EC50 for wild-type HIV-1 IIIB infected in human MT4 cells; assay type: toxicity, cell-based; details: read-out: Selectivity Index
[7] = Cmax in Sprague-Dawley rat at 2 mg/kg, iv; assay type: ADME, organism-based; design: dose 2 mg/kg, route iv; details: in vivo
[8] = Selectivity index, ratio of CC50 for human MT4 cells to EC50 for NNRTI-resistant HIV-1 RES056 infected in human MT4 cells; assay type: toxicity, cell-based; details: read-out: Selectivity Index
[9] = Cytotoxicity against human MT4 cells assessed as reduction in cell viability treated for 5 days by MTT assay; assay type: toxicity, cell-based; details: time 5 day
[10] = tested on: Human immunodeficiency virus 1; assay: Antiviral activity against NNRTI-resistant HIV-1 RES056 infected in human MT4 cells assessed as virus-induced cytopathicity treated for 5 days by MTT assay; assay type: functional, organism-based; details: Human immunodeficiency virus 1, RES056, MT4, 120 h
[11] = tested on: Human immunodeficiency virus 1; assay: Antiviral activity against wild-type HIV-1 IIIB infected in human MT4 cells assessed as virus-induced cytopathicity treated for 5 days by MTT assay; assay type: functional, organism-based; details: Human immunodeficiency virus 1, IIIB, MT4, 120 h
[12] = tested on: Human immunodeficiency virus 1; assay: Antiviral activity against HIV-1 harboring K103N mutant infected in human MT4 cells assessed as virus-induced cytopathicity treated for 5 days by MTT assay; assay type: functional, organism-based; details: Human immunodeficiency virus 1, MT4, 120 h
[13] = tested on: Human immunodeficiency virus 1; assay: Antiviral activity against HIV-1 harboring Y188L mutant infected in human MT4 cells assessed as virus-induced cytopathicity treated for 5 days by MTT assay; assay type: functional, organism-based; details: Human immunodeficiency virus 1, MT4, 120 h
[14] = Half life in Sprague-Dawley rat at 2 mg/kg, iv; assay type: ADME, organism-based; details: in vivo
[15] = Tmax in Sprague-Dawley rat at 10 mg/kg, po; assay type: ADME, organism-based; details: in vivo
[16] = Acute toxicity in Kunming mouse assessed as mortality at 2000 mg/kg, po measured after 7 days; assay type: organism-based; details: in vivo, 168 h, time 7 day
[17] = tested on: Human immunodeficiency virus 1; assay: Antiviral activity against HIV-1 F227L/V106A mutant infected in human MT4 cells assessed as virus-induced cytopathicity treated for 5 days by MTT assay; assay type: functional, organism-based; details: Human immunodeficiency virus 1, MT4, 120 h
[18] = tested on: Human immunodeficiency virus 1; assay: Antiviral activity against HIV-1 E138K mutant infected in human MT4 cells assessed as virus-induced cytopathicity treated for 5 days by MTT assay; assay type: functional, organism-based; details: Human immunodeficiency virus 1, MT4, 120 h
[19] = Clearance in Sprague-Dawley rat at 2 mg/kg, iv; assay type: ADME, organism-based; details: in vivo
[20] = biological target: Human immunodeficiency virus type 1 reverse transcriptase (Human immunodeficiency virus 1, UniProt Q72547); assay: Inhibition of wild-type HIV-1 reverse transcriptase assessed as inhibition of biotin-dUTP incorporation
[21] = tested on: Human immunodeficiency virus 1; assay: Antiviral activity against HIV-1 harboring L100I mutant infected in human MT4 cells assessed as virus-induced cytopathicity treated for 5 days by MTT assay; assay type: functional, organism-based; details: Human immunodeficiency virus 1, MT4, 120 h
[22] = AUC (0 to t) in Sprague-Dawley rat at 10 mg/kg, po; assay type: ADME, organism-based; design: dose 10 mg/kg, route po; details: in vivo
[23] = AUC (0 to t) in Sprague-Dawley rat at 2 mg/kg, iv; assay type: ADME, organism-based; design: dose 2 mg/kg, route iv; details: in vivo
[24] = tested on: Human immunodeficiency virus 1; assay: Antiviral activity against HIV-1 harboring K103N/Y181C mutant infected in human MT4 cells assessed as virus-induced cytopathicity treated for 5 days by MTT assay; assay type: functional, organism-based; details: Human immunodeficiency virus 1, MT4, 120 h
[25] = tested on: Human immunodeficiency virus 1; assay: Antiviral activity against HIV-1 harboring Y181C mutant infected in human MT4 cells assessed as virus-induced cytopathicity treated for 5 days by MTT assay; assay type: functional, organism-based; details: Human immunodeficiency virus 1, MT4, 120 h
[26] = Acute toxicity in Kunming mouse assessed as body weight change at 2000 mg/kg, po measured after 7 days; assay type: organism-based; details: in vivo, 168 h, time 7 day
[27] = Half life in Sprague-Dawley rat at 10 mg/kg, po; assay type: ADME, organism-based; details: in vivo
[28] = Acute toxicity in Kunming mouse assessed as poisoning symptoms at 2000 mg/kg, po measured after 7 days; assay type: organism-based; details: in vivo, 168 h, time 7 day

Sequence of Cytochrome P450 2C9 (P11712 whole entry): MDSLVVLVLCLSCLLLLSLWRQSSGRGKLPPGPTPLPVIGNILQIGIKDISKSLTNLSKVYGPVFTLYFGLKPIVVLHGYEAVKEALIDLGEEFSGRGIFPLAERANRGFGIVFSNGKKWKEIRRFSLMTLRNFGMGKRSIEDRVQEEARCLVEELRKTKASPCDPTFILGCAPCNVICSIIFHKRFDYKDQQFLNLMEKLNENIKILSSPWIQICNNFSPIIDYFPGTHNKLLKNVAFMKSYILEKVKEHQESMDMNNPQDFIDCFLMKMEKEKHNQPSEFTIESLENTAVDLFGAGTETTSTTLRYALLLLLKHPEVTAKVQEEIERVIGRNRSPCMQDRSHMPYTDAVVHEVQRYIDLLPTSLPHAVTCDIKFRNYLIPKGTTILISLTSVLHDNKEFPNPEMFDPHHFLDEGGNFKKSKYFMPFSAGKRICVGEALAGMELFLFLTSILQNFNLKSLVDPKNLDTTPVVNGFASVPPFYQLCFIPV
Sequence of Cytochrome P450 2C19 (P33261 whole entry): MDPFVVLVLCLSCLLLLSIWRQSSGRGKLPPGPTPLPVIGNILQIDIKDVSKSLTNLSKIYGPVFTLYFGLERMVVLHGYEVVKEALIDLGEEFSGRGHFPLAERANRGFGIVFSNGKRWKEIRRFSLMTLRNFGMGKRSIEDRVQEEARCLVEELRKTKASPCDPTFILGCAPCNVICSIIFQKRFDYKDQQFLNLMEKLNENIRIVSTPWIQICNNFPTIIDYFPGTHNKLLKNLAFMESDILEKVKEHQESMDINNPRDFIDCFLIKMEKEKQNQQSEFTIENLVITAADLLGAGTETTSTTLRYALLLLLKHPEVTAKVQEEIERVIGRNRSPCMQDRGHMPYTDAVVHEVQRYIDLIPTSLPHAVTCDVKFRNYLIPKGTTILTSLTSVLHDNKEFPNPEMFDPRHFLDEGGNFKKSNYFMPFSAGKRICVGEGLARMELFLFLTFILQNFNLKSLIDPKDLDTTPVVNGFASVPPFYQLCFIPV
Sequence of Cytochrome P450 3A4 (P08684 whole entry): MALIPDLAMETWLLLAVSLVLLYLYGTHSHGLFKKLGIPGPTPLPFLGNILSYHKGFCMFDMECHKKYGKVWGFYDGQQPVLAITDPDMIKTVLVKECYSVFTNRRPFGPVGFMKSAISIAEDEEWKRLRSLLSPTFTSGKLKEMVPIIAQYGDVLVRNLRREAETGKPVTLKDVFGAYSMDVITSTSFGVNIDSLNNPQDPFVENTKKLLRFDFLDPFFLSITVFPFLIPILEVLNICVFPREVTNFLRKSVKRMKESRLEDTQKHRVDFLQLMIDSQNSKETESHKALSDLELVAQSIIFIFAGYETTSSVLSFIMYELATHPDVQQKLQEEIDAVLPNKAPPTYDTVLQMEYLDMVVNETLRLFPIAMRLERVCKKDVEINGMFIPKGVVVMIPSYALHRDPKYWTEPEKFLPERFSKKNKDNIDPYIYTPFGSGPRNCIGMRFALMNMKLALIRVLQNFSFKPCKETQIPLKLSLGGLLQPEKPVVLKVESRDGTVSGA
Sequence of Cytochrome P450 2D6 (P10635 whole entry): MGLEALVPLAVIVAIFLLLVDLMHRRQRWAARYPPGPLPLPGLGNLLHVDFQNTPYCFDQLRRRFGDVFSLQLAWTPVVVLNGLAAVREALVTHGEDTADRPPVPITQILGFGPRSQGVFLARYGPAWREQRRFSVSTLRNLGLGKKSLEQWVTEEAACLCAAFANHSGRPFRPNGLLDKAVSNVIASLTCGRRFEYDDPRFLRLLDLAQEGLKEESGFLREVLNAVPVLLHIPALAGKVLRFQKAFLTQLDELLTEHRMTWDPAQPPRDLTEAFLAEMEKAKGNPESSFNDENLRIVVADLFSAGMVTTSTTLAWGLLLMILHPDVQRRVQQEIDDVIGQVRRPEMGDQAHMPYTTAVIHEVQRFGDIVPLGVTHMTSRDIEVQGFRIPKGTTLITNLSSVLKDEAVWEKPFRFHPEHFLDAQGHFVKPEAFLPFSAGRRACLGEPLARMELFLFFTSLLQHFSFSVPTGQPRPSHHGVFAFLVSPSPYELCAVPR

## Cc1cc(/C=C/C#N)cc(C)c1Cc1nc(NC2CCN(Cc3ccc(C(N)=O)cc3)CC2)ncc1-c1cncnc1
[1]
  AUC(0-inf): 403 ng·h/mL
Cytochrome P450 2D6
  IC50: 42500 nM
[2]
  bioavailability: 31.8%
Cytochrome P450 2C9
  IC50: 18900 nM
[3]
  Tmax: 1.98 min
[4]
  Cmax: 252 ng/mL
Cytochrome P450 3A4
  IC50: 10900 nM
Cytochrome P450 2C19
  IC50: > 50000 nM
Cytochrome P450 1A2
  IC50: > 50000 nM
[5]
  AUC(0-inf): 642 ng·h/mL
[6]
  selectivity ratio: 4630
[7]
  Cmax: 587 ng/mL
[8]
  selectivity ratio: 2270
[9]
  CC50 at 120 h: 22800 nM
[10]
  EC50: 10.1 nM
[11]
  EC50: 4.95 nM
[12]; read-out: EC50
  EC50: 4.77 nM
[12]; read-out: pEC50 (converted)
  EC50: 4.79 nM
[13]; read-out: EC50
  EC50: 15.3 nM
[13]; read-out: pEC50 (converted)
  EC50: 15.5 nM
[14]
  half-life: 1.33 h
[15]
  Tmax: 2 h
[16]
  Activity: Non-Toxic
[17]; read-out: EC50
  EC50: 11.8 nM
[17]; read-out: pEC50 (converted)
  EC50: 12 nM
[18]; read-out: EC50
  EC50: 9.49 nM
[18]; read-out: pEC50 (converted)
  EC50: 9.55 nM
[19]
  clearance: 82.7 mL/min/kg
[20]
  EC50: 4.9 nM
  IC50: 121 nM
[21]; read-out: EC50
  EC50: 3.43 nM
[21]; read-out: pEC50 (converted)
  EC50: 3.47 nM
[22]
  AUC(0-t): 654 ng·h/mL
[23]
  AUC(0-t): 400 ng·h/mL
[24]
  EC50: 10 nM
[25]; read-out: EC50
  EC50: 5.88 nM
[25]; read-out: pEC50 (converted)
  EC50: 5.89 nM
[26]
  Activity: Non-Toxic
[27]
  half-life: 1.2 h
[28]
  Activity: Non-Toxic

## Cc1cc(/C=C/C#N)cc(C)c1Cc1nc(NC2CCN(Cc3ccc(S(C)(=O)=O)cc3)CC2)ncc1-c1cncnc1
Cytochrome P450 2D6
  IC50: 25800 nM
Cytochrome P450 2C9
  IC50: 9580 nM
Cytochrome P450 3A4
  IC50: 6540 nM
Cytochrome P450 2C19
  IC50: > 50000 nM
Cytochrome P450 1A2
  IC50: > 50000 nM
[6]
  selectivity ratio: 796
[8]
  selectivity ratio: 207
[9]
  CC50 at 120 h: 2900 nM
[10]
  EC50: 14 nM
[11]
  EC50: 3.65 nM
[12]; read-out: EC50
  EC50: 3.6 nM
[13]; read-out: EC50
  EC50: 22.1 nM
[17]; read-out: EC50
  EC50: 9.14 nM
[18]; read-out: EC50
  EC50: 5.95 nM
[20]
  IC50: 104 nM
[21]; read-out: EC50
  EC50: 3.14 nM
[25]; read-out: EC50
  EC50: 5.45 nM

Source: ChEMBL document CHEMBL5316329, “Structure-Based Optimization of 2,4,5-Trisubstituted Pyrimidines as Potent HIV-1 Non-Nucleoside Reverse Transcriptase Inhibitors: Exploiting the Tolerant Regions of the Non-Nucleoside Reverse Transcriptase Inhibitors' Binding Pocket” (J Med Chem, 2023)
